Target: IKZF2 (Homo sapiens (Human), UniProt Q96SW2+Q9UKS7)
Test: IKZF2 HiBiT Assay (Jurkat-IKZF2-HiBiT cell line)
Type: cell-based
Conditions: Jurkat-IKZF2-HiBiT cells, 24 hours; for DC50: read-out: HiBit assay degradation analysis DC50; for Dmax: read-out: HiBit assay degradation analysis Dmax
Description: Degradation of IKZF2 protein is determined by IKZF2 HiBiT assay using the Jurkat-IKZF2-HiBiT (Promega) cell line. Briefly, cells are seeded in culture medium. Compounds are serially diluted in culture medium, and certain volume of the diluted compounds is added to the appropriate well of the plate. After the addition of compounds, the cells are incubated. At the end of treatment, Nano-Glo HiBiT Lytic Detection Reagent (Promega) is added to each well, and then the plates are incubated at room temperature for a certain time period. The luminescent signal is measured using a CALRIOstar plate reader (BMG Labtech). The readings are normalized to the DMSO-treated cells and the IC50 is calculated by nonlinear regression (four parameters sigmoid fitted with variable slope, least squares fit, and no constraint) analysis using the GraphPad Prism 8 software.
Degradation of IKZF2 protein was determined by IKZF2 HiBiT assay using the Jurkat-IKZF2-HiBiT (Promega) cell line. […] Compounds were serially diluted in culture medium, and 20 μl of the diluted compounds were added to the appropriate wells of the plate. After the addition of compounds, the cells were incubated at 37° C. in an atmosphere of 5% CO2 for 24 hours. At the end of treatment, 40 ul of Nano-Glo HiBiT Lytic Detection Reagent (Promega) was added to each well, and then the plates were incubated at room temperature for 10-20 minutes. The luminescent signal was measured using a CALRIOstar plate reader (BMG Labtech). The readings were normalized to the DMSO-treated cells and the IC50 was calculated by nonlinear regression (four parameters sigmoid fitted with variable slope, least squares fit, and no constraint) analysis using the GraphPad Prism 8 software.

IKZF2, sequence (Q9UKS7 whole entry): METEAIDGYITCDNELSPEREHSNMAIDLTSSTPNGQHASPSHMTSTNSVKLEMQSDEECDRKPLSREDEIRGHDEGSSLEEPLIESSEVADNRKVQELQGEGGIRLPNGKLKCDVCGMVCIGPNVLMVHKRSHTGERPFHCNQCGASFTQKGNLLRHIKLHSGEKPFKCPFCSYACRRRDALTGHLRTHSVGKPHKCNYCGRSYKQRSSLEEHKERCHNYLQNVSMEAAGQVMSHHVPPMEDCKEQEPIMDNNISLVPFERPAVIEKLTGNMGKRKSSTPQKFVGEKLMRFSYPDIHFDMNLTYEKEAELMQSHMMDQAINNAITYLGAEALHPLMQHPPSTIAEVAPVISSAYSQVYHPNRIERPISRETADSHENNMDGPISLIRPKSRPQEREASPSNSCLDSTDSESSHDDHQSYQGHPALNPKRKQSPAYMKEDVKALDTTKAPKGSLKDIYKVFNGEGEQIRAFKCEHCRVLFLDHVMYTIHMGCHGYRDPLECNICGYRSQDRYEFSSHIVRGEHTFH
IKZF2, sequence (Q96SW2 whole entry): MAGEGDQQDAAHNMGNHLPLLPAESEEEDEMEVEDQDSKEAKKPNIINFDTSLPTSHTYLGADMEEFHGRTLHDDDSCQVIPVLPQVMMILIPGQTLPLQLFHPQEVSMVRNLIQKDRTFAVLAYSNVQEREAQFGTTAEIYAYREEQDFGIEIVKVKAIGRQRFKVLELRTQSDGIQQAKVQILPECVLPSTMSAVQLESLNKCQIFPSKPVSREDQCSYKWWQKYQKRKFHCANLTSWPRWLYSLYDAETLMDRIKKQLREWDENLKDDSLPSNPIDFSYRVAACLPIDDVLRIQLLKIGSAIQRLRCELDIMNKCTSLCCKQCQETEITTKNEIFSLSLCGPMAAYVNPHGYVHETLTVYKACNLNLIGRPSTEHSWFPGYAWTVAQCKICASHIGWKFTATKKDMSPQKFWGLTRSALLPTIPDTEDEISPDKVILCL
IKZF2, sequence (Q16531 whole entry partner): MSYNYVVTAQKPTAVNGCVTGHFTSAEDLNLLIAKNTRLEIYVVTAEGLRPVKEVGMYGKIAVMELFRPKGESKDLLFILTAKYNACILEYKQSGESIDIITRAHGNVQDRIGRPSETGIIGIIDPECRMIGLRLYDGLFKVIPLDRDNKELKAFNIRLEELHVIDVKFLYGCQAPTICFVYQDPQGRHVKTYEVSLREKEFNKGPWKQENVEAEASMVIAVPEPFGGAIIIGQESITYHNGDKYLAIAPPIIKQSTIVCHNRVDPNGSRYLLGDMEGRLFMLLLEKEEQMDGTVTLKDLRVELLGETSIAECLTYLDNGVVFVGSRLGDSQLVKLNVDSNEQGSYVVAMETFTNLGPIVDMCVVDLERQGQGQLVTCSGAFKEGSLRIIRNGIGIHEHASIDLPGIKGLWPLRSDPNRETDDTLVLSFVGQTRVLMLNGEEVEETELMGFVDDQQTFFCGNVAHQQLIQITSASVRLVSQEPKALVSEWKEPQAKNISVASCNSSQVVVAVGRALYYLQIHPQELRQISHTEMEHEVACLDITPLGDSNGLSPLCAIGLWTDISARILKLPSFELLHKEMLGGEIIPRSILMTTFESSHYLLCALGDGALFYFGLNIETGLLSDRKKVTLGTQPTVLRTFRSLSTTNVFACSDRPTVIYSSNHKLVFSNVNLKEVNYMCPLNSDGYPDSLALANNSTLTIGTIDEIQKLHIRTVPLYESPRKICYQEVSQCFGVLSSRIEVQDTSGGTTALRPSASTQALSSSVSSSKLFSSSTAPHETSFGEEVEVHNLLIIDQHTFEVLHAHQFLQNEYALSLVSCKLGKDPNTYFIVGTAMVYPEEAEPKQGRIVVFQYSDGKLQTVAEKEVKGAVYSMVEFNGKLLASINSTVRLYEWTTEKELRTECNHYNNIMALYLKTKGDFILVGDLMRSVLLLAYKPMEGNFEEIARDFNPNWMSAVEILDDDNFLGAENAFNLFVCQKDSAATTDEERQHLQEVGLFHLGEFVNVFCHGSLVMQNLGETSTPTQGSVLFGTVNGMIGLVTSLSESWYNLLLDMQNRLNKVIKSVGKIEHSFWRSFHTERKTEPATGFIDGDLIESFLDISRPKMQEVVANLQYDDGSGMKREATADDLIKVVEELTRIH

Compound	DC50 [nM]	Dmax [%]
O=C1CCC(N2Cc3c(ccc4c3OCC43CCN(CC4CCCC4)CC3)C2=O)C(=O)N1 (stereo not shown) [Compound A18, 3-(1′-(cyclopentylmethyl)-6-oxo-6,8-dihydro-2H,7H-spiro[furo[2,3-e]isoindole-3,4′-piperidin]-7-yl)piperidine-2,6-dione]	> 500	< 40
CC1(C)CCC(CN2CCC3(CC2)COc2c3ccc3c2CN(C2CCC(=O)NC2=O)C3=O)CC1 (stereo not shown) [Compound A19, 3-(1′-((4,4-dimethylcyclohexyl)methyl)-6-oxo-6,8-dihydro-2H,7H-spiro[furo[2,3-e]isoindole-3,4′-piperidin]-7-yl)piperidine-2,6-dione]	> 500	< 40
O=C1CCC(N2Cc3c(ccc4c3OCC43CCN(CC4CCOCC4)CC3)C2=O)C(=O)N1 (stereo not shown) [Compound A20, 3-(6-oxo-1′-((tetrahydro-2H-pyran-4-yl)methyl)-6,8-dihydro-2H,7H-spiro[furo[2,3-e]isoindole-3,4′-piperidin]-7-yl)piperidine-2,6-dione]	> 500	< 40
O=C1CCC(N2Cc3c(ccc4c3OCC43CCN(CC4CCCc5ccccc54)CC3)C2=O)C(=O)N1 (stereo not shown) [Compound A21, 3-(6-oxo-1′-((1,2,3,4-tetrahydronaphthalen-1-yl)methyl)-6,8-dihydro-2H,7H-spiro[furo[2,3-e]isoindole-3,4′-piperidin]-7-yl)piperidine-2,6-dione]	> 500	60 to 80
O=C1CCC(N2Cc3c(ccc4c3OCC43CCN(CC4Cc5ccccc5C4)CC3)C2=O)C(=O)N1 (stereo not shown) [Compound A22, 3-(1′-((2,3-dihydro-1H-inden-2-yl)methyl)-6-oxo-6,8-dihydro-2H,7H-spiro[furo[2,3-e]isoindole-3,4′-piperidin]-7-yl)piperidine-2,6-dione]	> 500	< 40
O=C1CCC(N2Cc3c(ccc4c3OCC43CCN(CC4C5CC6CC(C5)CC4C6)CC3)C2=O)C(=O)N1 (stereo not shown) [Compound A23, 3-(1′-(((1r,3r,5r,7r)-adamantan-2-yl)methyl)-6-oxo-6,8-dihydro-2H,7H-spiro[furo[2,3-e]isoindole-3,4′-piperidin]-7-yl)piperidine-2,6-dione]	> 500	< 40
O=C1CCC(N2Cc3c(ccc4c3OCC43CCN(CC4CC5CCC4C5)CC3)C2=O)C(=O)N1 (stereo not shown) [Compound A24, 3-(1′-(bicyclo[2.2.1]heptan-2-ylmethyl)-6-oxo-6,8-dihydro-2H,7H-spiro[furo[2,3-e]isoindole-3,4′-piperidin]-7-yl)piperidine-2,6-dione]	> 500	40 to 60
O=C1CCC(N2Cc3c(ccc4c3OCC43CCN(Cc4ccc(-c5ccccc5)cc4)CC3)C2=O)C(=O)N1 (stereo not shown) [Compound A25, 3-(1′-([1,1′-biphenyl]-4-ylmethyl)-6-oxo-6,8-dihydro-2H,7H-spiro[furo[2,3-e]isoindole-3,4′-piperidin]-7-yl)piperidine-2,6-dione]	> 500	40 to 60
COc1ncc(CN2CCC3(CC2)COc2c3ccc3c2CN(C2CCC(=O)NC2=O)C3=O)cn1 (stereo not shown) [Compound A26, 3-(1′-((2-methoxypyrimidin-5-yl)methyl)-6-oxo-6,8-dihydro-2H,7H-spiro[furo[2,3-e]isoindole-3,4′-piperidin]-7-yl)piperidine-2,6-dione]	> 500	< 40
O=C1CCC(N2Cc3c(ccc4c3OCC43CCN(Cc4cc(F)cc(F)c4)CC3)C2=O)C(=O)N1 (stereo not shown) [Compound A28, 3-(1′-(3,5-difluorobenzyl)-6-oxo-6,8-dihydro-2H,7H-spiro[furo[2,3-e]isoindole-3,4′-piperidin]-7-yl)piperidine-2,6-dione]	> 500	40 to 60
CC(F)(F)c1ccc(CN2CCC3(CC2)COc2c3ccc3c2CN(C2CCC(=O)NC2=O)C3=O)cc1 (stereo not shown) [Compound A30, 3-(1′-(4-(1,1-difluoroethyl)benzyl)-6-oxo-6,8-dihydro-2H,7H-spiro[furo[2,3-e]isoindole-3,4′-piperidin]-7-yl)piperidine-2,6-dione]	> 500	< 40
O=C1CCC(N2Cc3c(ccc4c3OCC43CCN(Cc4ccc(Cl)cc4)CC3)C2=O)C(=O)N1 (stereo not shown) [Compound A32]	> 500	< 40
N#Cc1ccc(CN2CCC3(CC2)COc2c3ccc3c2CN(C2CCC(=O)NC2=O)C3=O)cc1Cl (stereo not shown) [Compound A33, 2-chloro-4-((7-(2,6-dioxopiperidin-3-yl)-6-oxo-7,8-dihydro-2H,6H-spiro[furo[2,3-e]isoindole-3,4′-piperidin]-1′-yl)methyl)benzonitrile]	> 500	40 to 60
O=C1CCC(N2Cc3c(ccc4c3OCC43CCN(Cc4ccc5ccccc5c4)CC3)C2=O)C(=O)N1 (stereo not shown) [Compound A34, 3-(1′-(naphthalen-2-ylmethyl)-6-oxo-6,8-dihydro-2H,7H-spiro[furo[2,3-e]isoindole-3,4′-piperidin]-7-yl)piperidine-2,6-dione]	< 50	60 to 80
O=C1CCC(N2Cc3c(ccc4c3OCC43CCN(Cc4cccc5c(F)cccc45)CC3)C2=O)C(=O)N1 (stereo not shown) [Compound A35, 3-(1′-((5-fluoronaphthalen-1-yl)methyl)-6-oxo-6,8-dihydro-2H,7H-spiro[furo[2,3-e]isoindole-3,4′-piperidin]-7-yl)piperidine-2,6-dione]	< 50	> 80
O=C1CCC(N2Cc3c(ccc4c3OCC43CCN(Cc4ccc(F)c5ccccc45)CC3)C2=O)C(=O)N1 (stereo not shown) [Compound A36, 3-(1′-((4-fluoronaphthalen-1-yl)methyl)-6-oxo-6,8-dihydro-2H,7H-spiro[furo[2,3-e]isoindole-3,4′-piperidin]-7-yl)piperidine-2,6-dione]	50 to 200	60 to 80
O=C1CCC(N2Cc3c(ccc4c3OCC43CCN(Cc4ccc(Cl)c5ccccc45)CC3)C2=O)C(=O)N1 (stereo not shown) [Compound A37, 3-(1′-((4-chloronaphthalen-1-yl)methyl)-6-oxo-6,8-dihydro-2H,7H-spiro[furo[2,3-e]isoindole-3,4′-piperidin]-7-yl)piperidine-2,6-dione]	> 500	40 to 60
O=C1CCC(N2Cc3c(ccc4c3OCC43CCN(Cc4cccc5ncccc45)CC3)C2=O)C(=O)N1 (stereo not shown) [Compound A38, 3-(6-oxo-1′-(quinolin-5-ylmethyl)-6,8-dihydro-2H,7H-spiro[furo[2,3-e]isoindole-3,4′-piperidin]-7-yl)piperidine-2,6-dione]	50 to 200	60 to 80
O=C1CCC(N2Cc3c(ccc4c3OCC43CCN(Cc4cccc5cnccc45)CC3)C2=O)C(=O)N1 (stereo not shown) [Compound A39, 3-(1′-(isoquinolin-5-ylmethyl)-6-oxo-6,8-dihydro-2H,7H-spiro[furo[2,3-e]isoindole-3,4′-piperidin]-7-yl)piperidine-2,6-dione]	< 50	60 to 80
O=C1CCC(N2Cc3c(ccc4c3OCC43CCN(Cc4cccc5ccncc45)CC3)C2=O)C(=O)N1 (stereo not shown) [Compound A40, 3-(1′-(isoquinolin-8-ylmethyl)-6-oxo-6,8-dihydro-2H,7H-spiro[furo[2,3-e]isoindole-3,4′-piperidin]-7-yl)piperidine-2,6-dione]	50 to 200	60 to 80
O=C1CCC(N2Cc3c(ccc4c3OCC43CCN(Cc4cccc5cccnc45)CC3)C2=O)C(=O)N1 (stereo not shown) [Compound A41, 3-(6-oxo-1′-(quinolin-8-ylmethyl)-6,8-dihydro-2H,7H-spiro[furo[2,3-e]isoindole-3,4′-piperidin]-7-yl)piperidine-2,6-dione]	50 to 200	60 to 80
O=C1CCC(N2Cc3c(ccc4c3OCC43CCN(Cc4nccc5ccccc45)CC3)C2=O)C(=O)N1 (stereo not shown) [Compound A42, 3-(1′-(isoquinolin-1-ylmethyl)-6-oxo-6,8-dihydro-2H,7H-spiro[furo[2,3-e]isoindole-3,4′-piperidin]-7-yl)piperidine-2,6-dione]	> 500	< 40
O=C1CCC(N2Cc3c(ccc4c3OCC43CCN(Cc4cncc5ccccc45)CC3)C2=O)C(=O)N1 (stereo not shown) [Compound A43, 3-(1′-(isoquinolin-4-ylmethyl)-6-oxo-6,8-dihydro-2H,7H-spiro[furo[2,3-e]isoindole-3,4′-piperidin]-7-yl)piperidine-2,6-dione]	> 500	40 to 60
O=C1CCC(N2Cc3c(ccc4c3OCC43CCN(Cc4ccnc5ccccc45)CC3)C2=O)C(=O)N1 (stereo not shown) [Compound A44, 3-(6-oxo-1′-(quinolin-4-ylmethyl)-6,8-dihydro-2H,7H-spiro[furo[2,3-e]isoindole-3,4′-piperidin]-7-yl)piperidine-2,6-dione]	> 500	< 40
O=C1CCC(N2Cc3c(ccc4c3OCC43CCN(Cc4ccc5ccncc5c4)CC3)C2=O)C(=O)N1 (stereo not shown) [Compound A45]	200 to 500	40 to 60
O=C1CCC(N2Cc3c(ccc4c3OCC43CCN(Cc4ccc5ncccc5c4)CC3)C2=O)C(=O)N1 (stereo not shown) [Compound A46, 3-(6-oxo-1′-(quinolin-6-ylmethyl)-6,8-dihydro-2H,7H-spiro[furo[2,3-e]isoindole-3,4′-piperidin]-7-yl)piperidine-2,6-dione]	200 to 500	40 to 60

Reference: patent publication US20250215012A1, “IKZF2 DEGRADERS AND USES THEREOF” (REGENTS OF THE UNIVERSITY OF MICHIGAN, priority 2022, published 2025)
